What all share (format): in vivo
The subject of experiment [1] is Verconica persica (VERPE). In words: Post-emergence herbicidal action against VERPE. The procedure, abridged: (§1)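 Greenhouse plants sprayed at the one-leaf stage, 2–3 weeks after sowing, with WP or EC formulations plus 0.5% additive at 600 l/ha water. Activity rated visually after about 3 weeks versus untreated controls (100% = dead, 0% = like control), at 320 g/ha or lower.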

Experiment [2] relates to Viola tricolor (VIOTR). In words: Pre-emergence herbicidal action against VIOTR. The procedure, abridged: (§2)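 Seeds sown in pots and covered with soil; WP or EC formulations sprayed onto the soil surface at 600 l/ha water with 0.5% additive, at 320 g/ha or lower. Greenhouse growth for about 3 weeks, then visual scoring as % effect against untreated controls (100% = plants dead).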

The subject of experiment [3] is Viola tricolor (VIOTR). The experiment is described as follows: Post-emergence herbicidal action against VIOTR. The procedure, abridged: as §1
Experiment [4] relates to Verconica persica (VERPE). In words: Pre-emergence herbicidal action against VERPE. The procedure, abridged: as §2
In another experiment the test system is Setaria viridis (SETVI). The experiment is described as follows: Pre-emergence herbicidal action against SETVI. The procedure, abridged:
as §2

A further experiment has as its system Lolium rigidum (LOLRI). In words: Pre-emergence herbicidal action against LOLRI. The procedure, abridged: as §2
Experiment [5] deals with Pharbitis purpurea (PHBPU). In words: Pre-emergence herbicidal action against PHBPU. The procedure, abridged: as §2
Experiment [6] deals with Pharbitis purpurea (PHBPU). In words: Post-emergence herbicidal action against PHBPU. The procedure, abridged: as §1
The subject of a further experiment is Avena fatua (AVEFA). The experiment is described as follows: Post-emergence herbicidal action against AVEFA. Conditions: visual rating about 3 weeks after treatment. The procedure, abridged: as §1
Experiment [7] relates to Matricaria inodora (MATIN). In words: Post-emergence herbicidal action against MATIN. The note with it: dosage 320 g/ha. The procedure, abridged:
as §1

For the compound `O=C(O)COc1nn(-c2ncccc2F)c(-c2ccc(F)nc2)c1Br` [Example I-17], in experiment [1] (320 g/ha, VERPE), the “Post-emergence action against VERPE in %” value came to 80%. The “Pre-emergence action against VIOTR in %” value with Viola tricolor (VIOTR) [2] (320 g/ha, Viola tricolor) was 100%; in the experiment on Viola tricolor (VIOTR) [2] (dosage 80 g/ha), 100%. The “Post-emergence action against VIOTR in %” value in the experiment on Viola tricolor (VIOTR) [3] (80 g/ha) and with Viola tricolor (VIOTR) [3] (320 g/ha) was 80% throughout. For the same compound, the “Pre-emergence action against VERPE in %” value in [4] (dosage 320 g/ha) is listed as 100%. Also, the “Pre-emergence action against SETVI in %” value in the experiment with Setaria viridis (SETVI) (dosage 80 g/ha) and with Setaria viridis (SETVI) (dosage 320 g/ha) was 100% in each case. Further, the “Pre-emergence action against LOLRI in %” value in the experiment on Lolium rigidum (LOLRI) (dosage 320 g/ha) turned out to be 100%. The “Pre-emergence action against PHBPU in %” value in [5] (dosage 320 g/ha) stood at 90%. The “Post-emergence action against PHBPU in %” value in experiment [6] (dosage 320 g/ha) is listed as 80%. The “Post-emergence action against AVEFA in %” value with Avena fatua (AVEFA) (320 g/ha) is reported as 80%.

In the case of `CCOC(=O)COc1nn(-c2ncccc2F)c(-c2cncc(F)c2)c1C1CC1` [Example I-174], the “Post-emergence action against VERPE in %” value in [1] (320 g/ha, VERPE) is listed as 80%; in [1] (dosage 80 g/ha), 80%. Also, the “Pre-emergence action against VIOTR in %” value was found to be 100% in the experiment on Viola tricolor (VIOTR) [2] (320 g/ha, Viola tricolor) and 100% with Viola tricolor (VIOTR) [2] (dosage 80 g/ha). Besides, the “Post-emergence action against VIOTR in %” value in the experiment on Viola tricolor (VIOTR) [3] (80 g/ha) and in the experiment on Viola tricolor (VIOTR) [3] (320 g/ha) was 80% throughout. In addition, the “Pre-emergence action against VERPE in %” value in experiment [4] (dosage 80 g/ha) and in experiment [4] (dosage 320 g/ha) was 100% each time. Further, the “Pre-emergence action against SETVI in %” value with Setaria viridis (SETVI) (dosage 80 g/ha) is listed as 90%; in the experiment with Setaria viridis (SETVI) (dosage 320 g/ha), 100%. Also, the “Pre-emergence action against LOLRI in %” value in the experiment on Lolium rigidum (LOLRI) (dosage 80 g/ha) and in the experiment on Lolium rigidum (LOLRI) (dosage 320 g/ha) was 100% each time. The “Pre-emergence action against PHBPU in %” value in experiment [5] (dosage 80 g/ha) and in experiment [5] (dosage 320 g/ha) was 90% in each case. Further, the “Post-emergence action against PHBPU in %” value was found to be 80% in experiment [6] (dosage 80 g/ha) and 90% in [6] (dosage 320 g/ha). The “Post-emergence action against AVEFA in %” value in the experiment with Avena fatua (AVEFA) (80 g/ha) is on record as 80%; in the experiment with Avena fatua (AVEFA) (320 g/ha), 90%.

For the compound `COC(=O)[C@@H](C)COC(=O)COc1nn(-c2ccccn2)c(-c2cncc(F)c2)c1Br` [Example I-194], in experiment [1] (320 g/ha, VERPE), the “Post-emergence action against VERPE in %” value was determined as 80%. Also, the “Pre-emergence action against VIOTR in %” value in the experiment with Viola tricolor (VIOTR) [2] (320 g/ha, Viola tricolor) is on record as 100%. Besides, the “Post-emergence action against VIOTR in %” value with Viola tricolor (VIOTR) [3] (80 g/ha) and in the experiment on Viola tricolor (VIOTR) [3] (320 g/ha) was 80% in each case. Also, the “Pre-emergence action against VERPE in %” value in [4] (dosage 320 g/ha) amounted to 90%. Besides, the “Pre-emergence action against SETVI in %” value in the experiment with Setaria viridis (SETVI) (dosage 80 g/ha) is 90%; in the experiment with Setaria viridis (SETVI) (dosage 320 g/ha), 100%. For the same compound, the “Pre-emergence action against LOLRI in %” value in the experiment with Lolium rigidum (LOLRI) (dosage 80 g/ha) was 90%; in the experiment on Lolium rigidum (LOLRI) (dosage 320 g/ha), 100%. Also, the “Pre-emergence action against PHBPU in %” value in [5] (dosage 80 g/ha) and in [5] (dosage 320 g/ha) was 90% throughout. The “Post-emergence action against PHBPU in %” value in [6] (dosage 80 g/ha) and in experiment [6] (dosage 320 g/ha) was 90% in each case. For the same compound, the “Post-emergence action against AVEFA in %” value in the experiment on Avena fatua (AVEFA) (320 g/ha) was found to be 90%.

`COC(=O)[C@@H](C)Oc1nn(-c2ncccc2F)c(-c2ccc(F)nc2)c1Br` [Example I-05, Methyl (2R)-2-{[4-bromo-1-(3-fluoropyridin-2-yl)-5-(6-fluoropyridin-3-yl)-1H-pyrazol-3-yl]oxy}propanoate]: the “Post-emergence action against MATIN in %” value in experiment [7] is given as 100%. Moreover, the “Post-emergence action against VERPE in %” value in [1] (320 g/ha, VERPE) came to 90%; in experiment [1] (dosage 80 g/ha), 90%. Moreover, the “Pre-emergence action against VIOTR in %” value in the experiment with Viola tricolor (VIOTR) [2] (320 g/ha, Viola tricolor) turned out to be 100%; with Viola tricolor (VIOTR) [2] (dosage 80 g/ha) it was 90%. The “Post-emergence action against VIOTR in %” value with Viola tricolor (VIOTR) [3] (80 g/ha) and with Viola tricolor (VIOTR) [3] (320 g/ha) was 100% each time. The “Pre-emergence action against VERPE in %” value in experiment [4] (dosage 80 g/ha) and in [4] (dosage 320 g/ha) was 100% in each case. In addition, the “Pre-emergence action against SETVI in %” value with Setaria viridis (SETVI) (dosage 80 g/ha) and with Setaria viridis (SETVI) (dosage 320 g/ha) was 100% in each case. Besides, the “Pre-emergence action against LOLRI in %” value is 80% with Lolium rigidum (LOLRI) (dosage 80 g/ha) and 100% with Lolium rigidum (LOLRI) (dosage 320 g/ha). The “Post-emergence action against PHBPU in %” value in experiment [6] (dosage 320 g/ha) is recorded as 90%. For the same compound, the “Post-emergence action against AVEFA in %” value in the experiment on Avena fatua (AVEFA) (80 g/ha) and with Avena fatua (AVEFA) (320 g/ha) was 90% each time.

As to `C[C@@H](Oc1nn(-c2ncccc2F)c(-c2ccc(F)nc2)c1Br)C(=O)O` [Example I-10], the “Post-emergence action against VERPE in %” value in experiment [1] (320 g/ha, VERPE) was determined as 80%. The “Pre-emergence action against VIOTR in %” value amounted to 100% in the experiment on Viola tricolor (VIOTR) [2] (320 g/ha, Viola tricolor) and 100% with Viola tricolor (VIOTR) [2] (dosage 80 g/ha). Further, the “Post-emergence action against VIOTR in %” value with Viola tricolor (VIOTR) [3] (320 g/ha) was determined as 80%. In addition, the figures for the “Pre-emergence action against VERPE in %” value in [4] (dosage 80 g/ha) and in [4] (dosage 320 g/ha) were 80% and 100%, respectively. In addition, the “Pre-emergence action against SETVI in %” value in the experiment with Setaria viridis (SETVI) (dosage 80 g/ha) and in the experiment with Setaria viridis (SETVI) (dosage 320 g/ha) was 100% throughout. Also, the “Pre-emergence action against LOLRI in %” value with Lolium rigidum (LOLRI) (dosage 80 g/ha) and in the experiment with Lolium rigidum (LOLRI) (dosage 320 g/ha) was 100% throughout. In addition, the “Pre-emergence action against PHBPU in %” value in experiment [5] (dosage 80 g/ha) and in experiment [5] (dosage 320 g/ha) was 90% in each case. For the same compound, the entries for the “Post-emergence action against AVEFA in %” value in the experiment with Avena fatua (AVEFA) (80 g/ha) and in the experiment with Avena fatua (AVEFA) (320 g/ha) were 80% and 90%, respectively.

(Values after patent publication US20240041042A1, “1-(PYRIDYL)-5-AZINYLPYRAZOLE DERIVATIVES, AND THEIR USE FOR CONTROL OF UNDESIRED PLANT GROWTH” (Bayer Aktiengesellschaft, priority 2020, published 2024).)
